Here are results for four sequences from US11999805B1, “Peptide inhibitors of CRISPR-Cas9” (priority 2020, dated 2024).

“Also recorded” adds a separate entry of the source. Read-outs that look alike come from different tables or passages of the source. No end group written: not given here.

Test [1] concerns SpyCas9. It counts as biochemical, S. pyogenes. As to the method:
(§1) To determine whether synthetic peptides would inhibit Cas9 cleavage activity, 200 peptide sequences were selected for chemical synthesis based on the following criteria: (1) peptides enriched after independent panning on RNP immobilized on both the Monomeric Avidin and NeutrAvidin columns, (2) Higher Boman index (>2.3), the computed potential protein-protein interaction for a given amino-acids sequence (3) a predicted instability index below 50. Theses peptides were screened at 200 μM for inhibition of Cas9 cleavage activity using the recently developed HT FRET-based assay using a dual-quencher substrate with low background and high sensitivity. See Seamon K J, Light Y K, Saada E A, Schoeniger J S, Harmon B. 2018. Versatile High-Throughput Fluorescence Assay for Monitoring Cas9 Activity. Analytical Chemistry 90:6913-6921. This assay specifically measures DNA substrate cleavage, and is able to differentiate between cleavage of a single strand of DNA and cleavage of both DNA strands.
(§2) Reactions (10 μL tubes) were set up in Cas9 reaction buffer (20 mM Tris-HCl, pH 7.5, 100 mM NaCl, 5 mM MgCl2, 0.1 mM EDTA) containing 50 nM annealed DNA substrate, 1.5 μM sgRNA, and 500 nM Cas9 in the wells of a black low volume 384-well plate. The reactions were incubated for 1 hour at ambient temperature; then, 10 μL of 8 M Gdn-HCl was added to quench the reaction before the plates were covered with an aluminum seal and incubated at 80° C. for 10 minutes. The fluorescence was read in a Tecan Infinite M1000 or SPARK plate spectrofluorometer (Tecan).
(§3) The peptides were diluted 2-fold from 200 to 12.5 μM and incubated for 1 hour with 500 nM SpyCas9, gRNA prior to addition of 50 nM FRET DNA substrate for 1 hour. […] Data are the average ±SD of three replicate wells.
(§4) For the 11 original peptides reactions (10 μL) were set up in Cas9 reaction buffer [20 mM Tris-HCl, pH 7.5, 100 mM NaCl, 5 mM MgCl2, 0.1 mM EDTA] containing 50 nM annealed DNA substrate, 1.5 μM sgRNA, and 0.5 μM Cas9 in the wells of a black low volume 384-well plate. The reactions were incubated for 1 hour at ambient temperature with the indicated concentration of peptide; then, 10 μL, of 8 M Guanidine-HCl was added to quench the reaction. The plates were covered with an aluminum seal and incubated at 75° C. for 10 minutes and cooled down to RT before reading.
(§5) The % inhibition was determined by subtracting normalized relative fluorescent value to Cas9 without peptides (% activity) from 100% cleavage activity of CjeCas9, SauCas9, SpyCas9 by FRET assay. Data are the average ±SD of eleven replicate wells from three technical replicates at the indicated concentration of peptides.
(§6) FIGS. 12A, 12B, and 12C show graphs of measurements and fitted curves of concentration dependent inhibition of mutated peptides against Cas9 variants. The inhibition was measured as relative fluorescent value to Cas9 without peptides (% activity) of CjeCas9 (line with squares), SauCas9 (line with diamonds), SpyCas9 (line with triangles) by FRET assay with the indicated concentration of peptides and compared to original peptides (line with circles). Data are the average ±SD of eleven replicate wells from three technical replicates.

In test [2] the target is T1, SpyCas9 (Streptococcus pyogenes serotype M1, UniProt Q99ZW2). It counts as biochemical, S. pyogenes. Particulars: for IC50: read-out: SpyCas9 IC50, FRET cleavage assay, concentration curves, 0.5 μM Cas9, 50 nM DNA substrate. As to the method: as §1, §2, §3, §4, §5, §6
Test [3] deals with T2, CjeCas9 (Campylobacter jejuni subsp. jejuni serotype O:2, UniProt Q0P897).
T2 construct: made in house; host or cells: E. coli BL21(star)DE3
In words: HT FRET-based Cas9 cleavage activity assay, CjeCas9. The format is biochemical, C. jejuni. As to the method:
(§7) To evaluate the ability of identified peptides to inhibit other Cas9 variants, SauCas9 and CjeCas9 cleavage assays were used to quantitatively measure changes in activity. […] The inhibition was measured as relative fluorescent value to Cas9 without peptides (% activity) of CjeCas9 (Top), SauCas9 (middle), SpyCas9 (bottom) by FRET assay with the indicated concentration of peptides. Data are the average ±SD of eleven replicate wells from three technical replicates.
as §4, §5, §6

The target of test [4] is T3, SauCas9 (Staphylococcus aureus, UniProt J7RUA5).
T3 construct: made in house; host or cells: E. coli BL21(star)DE3
Description: HT FRET-based Cas9 cleavage activity assay, SauCas9. It counts as biochemical, S. aureus. As to the method:
as §7, §4, §5, §6

Test [5] has as its target T4, SauCas9 (Staphylococcus aureus, UniProt J7RUA5).
T4 construct: made in house; host or cells: E. coli BL21(star)DE3
T4 sequence (J7RUA5 whole entry, looked up): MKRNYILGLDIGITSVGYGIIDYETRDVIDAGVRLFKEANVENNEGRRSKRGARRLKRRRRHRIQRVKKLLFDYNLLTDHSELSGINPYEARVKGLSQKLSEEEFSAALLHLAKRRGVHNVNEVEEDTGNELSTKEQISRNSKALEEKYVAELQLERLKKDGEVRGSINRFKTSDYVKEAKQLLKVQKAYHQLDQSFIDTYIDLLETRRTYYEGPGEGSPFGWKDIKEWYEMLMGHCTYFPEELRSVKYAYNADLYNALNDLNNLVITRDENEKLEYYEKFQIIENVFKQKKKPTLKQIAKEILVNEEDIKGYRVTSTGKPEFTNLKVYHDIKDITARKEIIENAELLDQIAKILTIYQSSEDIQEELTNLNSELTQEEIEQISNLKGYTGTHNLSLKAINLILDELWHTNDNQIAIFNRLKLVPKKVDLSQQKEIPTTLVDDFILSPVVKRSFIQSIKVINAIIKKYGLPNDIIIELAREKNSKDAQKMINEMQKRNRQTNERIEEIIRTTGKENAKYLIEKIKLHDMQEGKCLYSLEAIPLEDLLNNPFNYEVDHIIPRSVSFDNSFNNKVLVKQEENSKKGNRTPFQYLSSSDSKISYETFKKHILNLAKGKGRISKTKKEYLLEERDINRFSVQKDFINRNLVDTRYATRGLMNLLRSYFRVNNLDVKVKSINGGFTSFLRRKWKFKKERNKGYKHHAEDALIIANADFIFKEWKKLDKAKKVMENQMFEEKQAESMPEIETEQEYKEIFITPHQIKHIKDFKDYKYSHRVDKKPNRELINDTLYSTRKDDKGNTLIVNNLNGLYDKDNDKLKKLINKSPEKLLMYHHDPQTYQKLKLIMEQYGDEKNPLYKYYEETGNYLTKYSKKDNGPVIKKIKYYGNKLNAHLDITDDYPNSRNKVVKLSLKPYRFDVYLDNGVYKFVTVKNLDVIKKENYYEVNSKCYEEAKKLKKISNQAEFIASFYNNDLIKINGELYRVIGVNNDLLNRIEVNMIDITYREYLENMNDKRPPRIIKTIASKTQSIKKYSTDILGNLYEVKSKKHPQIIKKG
The test is described as above. The format is biochemical, S. aureus. As to the method: as §7, §4, §5, §6
This is another data set of the same source.

The target in test [6] is T1, SpyCas9. Description: Beacon DNA binding assay (Cas9 RNP binding to DNA substrate). On the set-up: species or system S. pyogenes. As to the method:
To determine the mechanism of action of these peptide inhibitors, a binding assay was performed to determine if inhibitors are blocking Cas9 RNP binding to the DNA substrate. The beacon DNA binding assay was adapted and performed as described in Mekler V, Minakhin L, Semenova E, Kuznedelov K, Severinov K. 2016. Kinetics of the CRISPR-Cas9 effector complex assembly and the role of 3′-terminal segment of guide RNA. Nucleic Acids Res 44:2837-45. DNA probes were prepared from unmodified and chromophore-labeled DNA oligonucleotides synthesized by Integrated DNA Technologies. Equimolar amounts of synthetic complementary strands were mixed in a buffer containing 40 mM Tris, pH 7.9, 100 mM NaCl; heated for 2 min at 90° C. and slowly cooled to 20° C. The PAM-distal ends of the beacon target and non-target strands were labeled with fluorescein and Iowa Black® FQ, respectively. Both beacons mimic native target DNA and bind Cas9/sgRNA. The fluorescent signal is increased when Cas9 binds the DNA substrate and a helix forms with the target substrate strand and gRNA resulting in dissociation of oligo 3, leading to increase in fluorescent signal.
Data are the average ±SD of three replicate wells.

T2 sequence (Q0P897 whole entry): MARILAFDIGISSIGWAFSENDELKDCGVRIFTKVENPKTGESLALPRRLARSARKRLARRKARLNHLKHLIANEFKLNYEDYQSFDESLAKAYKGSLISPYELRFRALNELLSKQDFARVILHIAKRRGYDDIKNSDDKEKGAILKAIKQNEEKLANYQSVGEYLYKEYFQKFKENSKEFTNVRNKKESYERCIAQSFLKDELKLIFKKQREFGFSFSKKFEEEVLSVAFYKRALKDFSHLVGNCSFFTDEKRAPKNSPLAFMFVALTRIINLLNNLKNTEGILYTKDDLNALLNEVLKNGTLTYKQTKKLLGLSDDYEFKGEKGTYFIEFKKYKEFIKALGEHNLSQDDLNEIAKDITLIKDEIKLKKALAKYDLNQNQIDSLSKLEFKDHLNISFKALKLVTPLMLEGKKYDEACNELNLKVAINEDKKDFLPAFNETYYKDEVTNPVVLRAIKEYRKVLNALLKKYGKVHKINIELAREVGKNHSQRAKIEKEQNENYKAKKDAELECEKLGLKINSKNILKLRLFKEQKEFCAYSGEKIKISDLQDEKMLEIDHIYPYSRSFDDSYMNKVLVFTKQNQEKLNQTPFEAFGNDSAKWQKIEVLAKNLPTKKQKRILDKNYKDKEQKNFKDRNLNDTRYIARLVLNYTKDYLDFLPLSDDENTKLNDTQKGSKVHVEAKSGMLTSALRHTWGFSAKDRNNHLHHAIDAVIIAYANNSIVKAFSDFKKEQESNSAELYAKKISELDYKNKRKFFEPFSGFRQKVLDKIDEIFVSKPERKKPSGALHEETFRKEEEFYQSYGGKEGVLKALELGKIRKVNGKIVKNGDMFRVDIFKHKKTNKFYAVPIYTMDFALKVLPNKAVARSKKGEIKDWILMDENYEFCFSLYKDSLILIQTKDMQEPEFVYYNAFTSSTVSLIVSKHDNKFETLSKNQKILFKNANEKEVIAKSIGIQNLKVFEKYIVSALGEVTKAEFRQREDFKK
T1 sequence (Q99ZW2 whole entry): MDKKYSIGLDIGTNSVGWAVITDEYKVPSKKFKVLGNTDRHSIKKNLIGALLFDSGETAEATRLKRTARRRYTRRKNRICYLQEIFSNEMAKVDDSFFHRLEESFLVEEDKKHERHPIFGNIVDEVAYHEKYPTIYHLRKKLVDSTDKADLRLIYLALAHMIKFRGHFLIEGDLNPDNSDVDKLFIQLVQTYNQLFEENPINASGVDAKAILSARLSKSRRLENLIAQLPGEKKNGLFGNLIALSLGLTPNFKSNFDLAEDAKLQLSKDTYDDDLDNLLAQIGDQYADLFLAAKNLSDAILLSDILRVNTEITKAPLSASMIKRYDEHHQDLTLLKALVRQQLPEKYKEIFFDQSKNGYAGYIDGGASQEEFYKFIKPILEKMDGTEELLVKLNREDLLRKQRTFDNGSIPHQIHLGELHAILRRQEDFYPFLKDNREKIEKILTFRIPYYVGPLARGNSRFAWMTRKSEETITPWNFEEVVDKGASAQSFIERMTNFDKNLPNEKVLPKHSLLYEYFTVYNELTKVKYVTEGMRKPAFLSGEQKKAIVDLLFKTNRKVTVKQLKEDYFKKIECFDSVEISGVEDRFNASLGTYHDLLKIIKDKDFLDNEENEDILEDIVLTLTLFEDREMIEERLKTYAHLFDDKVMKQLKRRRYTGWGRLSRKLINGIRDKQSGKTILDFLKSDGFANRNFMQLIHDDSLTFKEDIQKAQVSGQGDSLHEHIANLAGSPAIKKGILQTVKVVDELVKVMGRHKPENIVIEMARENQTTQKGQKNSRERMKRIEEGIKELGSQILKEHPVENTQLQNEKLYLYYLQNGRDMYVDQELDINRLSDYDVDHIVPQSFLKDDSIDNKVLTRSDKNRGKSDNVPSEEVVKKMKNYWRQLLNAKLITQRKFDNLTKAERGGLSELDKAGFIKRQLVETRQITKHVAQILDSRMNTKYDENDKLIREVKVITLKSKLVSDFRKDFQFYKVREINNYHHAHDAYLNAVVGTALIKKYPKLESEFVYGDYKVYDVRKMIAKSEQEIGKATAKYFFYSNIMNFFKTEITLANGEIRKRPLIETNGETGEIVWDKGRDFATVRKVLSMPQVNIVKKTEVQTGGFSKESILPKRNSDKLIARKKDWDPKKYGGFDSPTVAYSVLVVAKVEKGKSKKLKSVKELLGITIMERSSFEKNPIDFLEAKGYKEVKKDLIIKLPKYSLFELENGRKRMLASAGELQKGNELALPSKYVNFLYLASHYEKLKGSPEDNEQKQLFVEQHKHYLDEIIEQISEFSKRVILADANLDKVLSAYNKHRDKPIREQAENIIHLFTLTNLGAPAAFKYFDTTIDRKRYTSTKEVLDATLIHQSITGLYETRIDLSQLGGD

For “KERRRSMMQLSVKSYTLFLGGT [Peptide 82-2-21]”, in test [1], the “activity against SpyCas9, SauCas9 and CjeCas9 (in words)” value (shortened to “activity against SpyCas9”) was “particularly strong activity”. Moreover, the values for the half-maximal inhibitory concentration (IC50) in test [2], in test [3] and in test [4] were 31.8 µM, 51.8 µM and 40.9 µM, respectively.

Consider “NRSHKILLHYNGCHYRLFLRSL [Peptide 90-1-27]”, for which the “activity against SpyCas9” value in test [1] is given as “particularly strong activity”. The IC50 in test [2] worked out at 28.5 µM; in test [3] it was 58.3 µM; in test [4], 45 µM.

Regarding “VRVFSAYERLLIRRRRRRRRAG [Peptide 60-1-10]”, the “activity against SpyCas9” value in test [1] is “particularly strong activity”. Also, the values for the IC50 in test [2], in test [3] and in test [4] were 27.2 µM, 30.1 µM and 27.3 µM, respectively.

As for VYDFYRMLSHFFLKGPSR [Peptide 91], the “activity of SpyCas9 (% activity, FRET)” value in test [2] (peptide 100 μM) and in test [2] (peptide 200 μM) was “significantly reduced activity” each time. The “activity of SauCas9 (% activity, FRET)” value is “significantly reduced activity” in test [5] (peptide 100 μM) and “significantly reduced activity; also recorded: reduced SauCas9 activity” in test [5] (peptide 200 μM). Besides, the “mechanism subset: blocks Cas9 RNP binding to target DNA or other mechanism” value in test [6] is “block Cas9 RNP binding to the target DNA”. The “binding of SpyCas9 RNP to DNA substrate (beacon fluorescence)” value in test [6] (peptide 40 μM, SpyCas9 500 nM, DNA substrate 50 nM) is listed as “unaltered; also recorded: did not reduce substrate binding”.

By IC50 is commonly meant the concentration at which inhibition is half-maximal.
